Assay results as given in patent US20200221740A1, “TERMINALIA FERDINANDIANA LEAF EXTRACT AND PRODUCTS CONTAINING EXTRACT OF TERMINALIA FERDINANDIANA LEAF” (RISING PHOENIX INDUSTRIES PTY LTD, priority 2017, published 2020).

What was measured:
[1] = test system: Shewanella putrefaciens strain 200; assay: disc diffusion growth inhibition screening; type: cell-based; conditions: S. putrefaciens, 10 μL extract per disc, ampicillin 10 μg, 30° C. 24 h
From the text: (§1) Antibacterial screening: Environmental Shewanella strains: Shewanella putrefaciens strain 200, Shewanella baltica strain OS155, Shewanella frigidimarina strain NCIMB 400 and Shewanella loihica strain PV-4 were used. Antibacterial screening was achieved using a modified peptone/yeast extract (PYE) agar containing: 1 g/L peptone, 1.5 g/L yeast extract, 7.5 g/L NaCl, 1 g/L ammonium persulfate, 2.4 g/L HEPES buffer (pH 7.5) and 16 g/L bacteriological agar. The S. putrefaciens and S. loihica cultures were incubated at 30° C. for 24 h. The S. baltica and S. frigidimarina cultures were incubated at 15° C. for 72 h. All stock cultures were subcultured and maintained in PYE media at 4° C. Evaluation of antibacterial activity: Antibacterial activity screening of the […] fruit and leaf extracts was assessed using a modified disc diffusion assay. […] Discs were infused with 10 μL of the […] fruit and leaf extracts, allowed to dry and placed onto the inoculated plates. The plates were left to stand at 4° C. for 2 h before incubation. Plates inoculated with S. putrefaciens or S. loihica cultures were incubated at 30° C. for 24 h. S. baltica or S. frigidimarina cultures were incubated at 15° C. for 72 h. The diameters of the inhibition zones were measured to the closest whole millimetre. Each assay was completed in at least triplicate. Mean values (±SEM) are reported in this study. Ampicillin discs (10 μg) were obtained and used as positive controls to compare antibacterial activity. Filter discs infused with 10 μL of distilled water were used as a negative control.

[2] = test system: Shewanella loihica strain PV-4; assay: disc diffusion growth inhibition screening; type: cell-based; conditions: PV4, S. loihica, 10 μL extract per disc, ampicillin 10 μg, 30° C. 24 h
From the text: as §1

[3] = test system: Shewanella baltica strain OS155; assay: disc diffusion growth inhibition screening; type: cell-based; conditions: S. baltica
From the text: as §1

[4] = test system: Shewanella frigidimarina strain NCIMB 400; assay: disc diffusion growth inhibition screening; type: cell-based; conditions: S. frigidimarina
From the text: Antibacterial screening: Environmental Shewanella strains: Shewanella putrefaciens strain 200, Shewanella baltica strain OS155, Shewanella frigidimarina strain NCIMB 400 and Shewanella loihica strain PV-4 were used. Antibacterial screening was achieved using a modified peptone/yeast extract (PYE) agar containing: 1 g/L peptone, 1.5 g/L yeast extract, 7.5 g/L NaCl, 1 g/L ammonium persulfate, 2.4 g/L HEPES buffer (pH 7.5) and 16 g/L bacteriological agar.
The S. putrefaciens and S. loihica cultures were incubated at 30° C. for 24 h. The S. baltica and S. frigidimarina cultures were incubated at 15° C. for 72 h. All stock cultures were subcultured and maintained in PYE media at 4° C.
Evaluation of antibacterial activity: Antibacterial activity screening of the T. ferdinandiana fruit and leaf extracts was assessed using a modified disc diffusion assay. Briefly, 100 μL of each individual Shewanella spp. was grown separately in 20 mL of fresh nutrient broth until an approximate count of 10^8 cells/mL was achieved. A volume of 100 μL of each bacterial suspension was spread onto nutrient agar plates and the extracts were tested for antibacterial activity using 5 mm sterilised filter paper discs. […]
Plates inoculated with S. putrefaciens or S. loihica cultures were incubated at 30° C. for 24 h. […] The diameters of the inhibition zones were measured to the closest whole millimetre. […]

[5] = test system: Artemia franciscana nauplii; assay: Artemia franciscana nauplii lethality assay; conditions: potassium dichromate 1000 μg/mL
Procedure: Artemia franciscana nauplii toxicity screening: Toxicity was assessed using a modified Artemia franciscana nauplii lethality assay. Briefly, 400 μL of seawater containing ˜53 (mean 52.7, n=125, SD 11.8) A. franciscana nauplii were added to wells of a 48 well plate and immediately used in the bioassay. A volume of 400 μL of the reference toxin or the diluted plant extracts were transferred to the wells and incubated at 25±1° C. under artificial light (1000 Lux). For each plate, a 400 μL seawater negative control was run in triplicate. The wells were assessed at regular intervals and the number of dead counted. The nauplii were deemed dead if no movement of the appendages was observed within 10 seconds. After 24 h, all nauplii were sacrificed and counted to determine the total % mortality per well.
To further quantify the effects of toxin concentration on the initiation of mortality, the extracts were serially diluted in artificial seawater to test across a range of concentrations in the Artemia nauplii bioassay.

SMILES: CC1(C)S[C@@H]2[C@H](NC(=O)[C@H](N)c3ccccc3)C(=O)N2[C@H]1C(=O)O [ampicillin]
- zone of inhibition at 10 µg/disc [1]: 8.3 ± 0.6 mm
- zone of inhibition at 10 µg/disc [2]: 19.6 ± 1.3 mm
- growth inhibitory activity (in words) [3]: unaffected
- growth inhibitory activity (in words) [4]: resistant

SMILES: [K+].[K+].[O]=[Cr](=[O])([O-])[O][Cr](=[O])(=[O])[O-] [potassium dichromate]
- onset of nauplii death [5]: ≤ 3 h
- mortality ([5]; within 5 hours): 100%
